US9102591B2, “Benzamides” (H. Lundbeck A/S, priority 2012, dated 2015)

Target: P2X7 receptor (Homo sapiens (Human), UniProt Q99572)
Test: P2X7 FLIPR assay (BzATP-stimulated calcium fluorescence, antagonist IC50)
Assay type: cell-based
Outline: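 Cells expressing P2X7 receptor (human, rat or mouse), plated 24 hours earlier in low-serum medium, loaded with Fluo-4 NW dye (30 min 37° C, 30 min room temperature).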

Chain of P2X7 receptor (Q99572 whole entry): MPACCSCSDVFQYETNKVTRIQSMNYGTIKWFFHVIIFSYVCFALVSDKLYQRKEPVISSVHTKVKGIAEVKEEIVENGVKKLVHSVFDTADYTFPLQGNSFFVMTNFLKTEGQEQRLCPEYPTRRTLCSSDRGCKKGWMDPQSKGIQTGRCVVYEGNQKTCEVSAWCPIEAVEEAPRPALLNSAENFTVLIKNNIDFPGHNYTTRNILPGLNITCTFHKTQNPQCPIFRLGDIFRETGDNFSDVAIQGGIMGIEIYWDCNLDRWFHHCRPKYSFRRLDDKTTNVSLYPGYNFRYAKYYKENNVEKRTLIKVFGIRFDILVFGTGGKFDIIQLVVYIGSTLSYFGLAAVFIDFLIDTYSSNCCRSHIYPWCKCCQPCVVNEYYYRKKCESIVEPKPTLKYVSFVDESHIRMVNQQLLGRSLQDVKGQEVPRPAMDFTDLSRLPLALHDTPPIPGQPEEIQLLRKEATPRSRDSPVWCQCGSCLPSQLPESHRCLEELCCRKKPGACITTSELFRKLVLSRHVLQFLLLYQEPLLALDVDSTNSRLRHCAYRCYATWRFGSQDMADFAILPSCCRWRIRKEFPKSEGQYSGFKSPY

IC50 | Molecule
740 nM | CC(C)(O)c1ccc(C(CNC(=O)c2cccc(Cl)c2Cl)CC2CC2)cn1 (single isomer, unassigned; (+)) [(+)2,3-dichloro-N-[3-cyclopropyl-2-[6-(1-hydroxy-1-methyl-et] [(+)2,3-dichloro-N-[3-cyclopropyl-2-[6-(1-hydroxy-1-methyl-ethyl)-3-pyridyl]propyl]benzamide]
970 nM | Cc1ncc(C(CNC(=O)c2ccccc2Cl)C2CCOCC2)cn1 (single isomer, unassigned; (+)) [(+)2-chloro-N-[2-(2-methylpyrimidin-5-yl)-2-tetrahydropyran-] [(+)2-chloro-N-[2-(2-methylpyrimidin-5-yl)-2-tetrahydropyran-4-yl-ethyl]benzamide]
25 nM | O=C(NCC1(c2ccc(F)nc2)CCC(F)(F)CC1)c1ccccc1Cl [2-chloro-N-((4,4-difluoro-1-(6-fluoropyridin-3-yl)cyclohexyl)methyl)benzamide]
720 nM | O=C(NCC(c1ccccc1)c1ccnnc1)c1ccc(Cl)cc1Cl (centres unmarked) [2,4-dichloro-N-(2-phenyl-2-pyridazin-4-yl-ethyl)benzamide]
0.89 nM | O=C(NCC(CC1CC1)c1ccc(C(F)(F)F)nc1)c1c(Cl)cccc1Cl (single isomer, unassigned; (+)) [(+)2,6-dichloro-N-[3-cyclopropyl-2-[6-(trifluoromethyl)-3-py] [(+)2,6-dichloro-N-[3-cyclopropyl-2-[6-(trifluoromethyl)-3-pyridyl]propyl]benzamide]
30 nM | O=C(NCC(c1ccc(Cl)cc1)C1CCOCC1)c1c(F)cccc1Cl (centres unmarked) [2-chloro-N-[2-(4-chlorophenyl)-2-tetrahydropyran-4-yl-ethyl]-6-fluoro-benzamide]
1.8 nM | O=C(NCC(c1ccc(F)cc1)c1cnc(C(F)(F)F)nc1)c1cccc(F)c1Cl (single isomer, unassigned; (-)) [(−)2-chloro-3-fluoro-N-[2-(4-fluorophenyl)-2-[2-(trifluorome] [(−)2-chloro-3-fluoro-N-[2-(4-fluorophenyl)-2-[2-(trifluoromethyl)pyrimidin-5-yl]ethyl]benzamide]
4.2 nM | COc1cccc(C(=O)NCC(CC2CC2)c2ccc(C(F)(F)F)nc2)c1Cl (single isomer, unassigned; (-)) [(−)2-chloro-N-[3-cyclopropyl-2-[6-(trifluoromethyl)-3-pyridy] [(−)2-chloro-N-[3-cyclopropyl-2-[6-(trifluoromethyl)-3-pyridyl]propyl]-3-methoxy-benzamide]
3.9 nM | O=C(NCC(CC1CC1)c1cnc(C(F)(F)F)nc1)c1cccc(Cl)c1Cl (single isomer, unassigned; (+)) [(+)2,3-dichloro-N-[3-cyclopropyl-2-[2-(trifluoromethyl)pyrim] [(+)2,3-dichloro-N-[3-cyclopropyl-2-[2-(trifluoromethyl)pyrimidin-5-yl]propyl]benzamide]
860 nM | Cc1ncc(C(CNC(=O)c2cccc(F)c2Cl)c2ccncc2)cn1 (centres unmarked) [2-chloro-3-fluoro-N-[2-(2-methylpyrimidin-5-yl)-2-(4-pyridyl)ethyl]benzamide]
11 nM | O=C(NCC(CC1CC1)c1ccc(C(F)(F)F)nc1)c1cccc(F)c1Cl (single isomer, unassigned; (+)) [(+)2-chloro-N-[3-cyclopropyl-2-[6-(trifluoromethyl)-3-pyridy] [(+)2-chloro-N-[3-cyclopropyl-2-[6-(trifluoromethyl)-3-pyridyl]propyl]-3-fluoro-benzamide]
0.71 nM | Cc1c(Br)cccc1C(=O)NCC1(c2ccc(C(F)(F)F)nc2)CCC(F)(F)CC1 [3-bromo-N-((4,4-difluoro-1-(6-(trifluoromethyl)pyridin-3-yl)cyclohexyl)methyl)-2-methylbenzamide]
0.09 nM | O=C(NCC(CC1(C(F)(F)F)CC1)c1ccc(C(F)(F)F)nc1)c1ccccc1Cl (single isomer, unassigned; (+)) [(+)2-chloro-N-[3-[1-(trifluoromethyl)cyclopropyl]-2-[6-(trif] [(+)2-chloro-N-[3-[1-(trifluoromethyl)cyclopropyl]-2-[6-(trifluoromethyl)-3-pyridyl]propyl]benzamide]

The next lines start with the molecule.

Molecule | IC50
(−)2,3-dichloro-N-[3-cyclopropyl-2]benzamide | 1.9 nM
Cc1ccccc1C(=O)NCC1(c2ccccc2)CCN(C)CC1 [2-Methyl-N-(1-methyl-4-phenyl-piperidin-4-ylmethyl)-benzamide] | 64 nM
O=C(NCC(CC1CC1)c1ccc(C(F)(F)F)nc1)c1ccccc1Cl (centres unmarked) [2-chloro-N-[3-cyclopropyl-2-[6-(trifluoromethyl)-3-pyridyl]propyl]benzamide] | 3.4 nM
O=C(NCC(CC1(C(F)F)CC1)c1ccc(C(F)(F)F)nc1)c1cccc(Cl)c1Cl (centres unmarked) [2,3-dichloro-N-[3-[1-(difluoromethyl)cyclopropyl]-2-[6-(trifluoromethyl)-3-pyridyl]propyl]benzamide] | 1.6 nM
O=C(NCC(c1ccc(C(F)(F)F)nc1)C1CC1)c1cccc(Cl)c1Cl (centres unmarked) [2,3-dichloro-N-(2-cyclopropyl-2-(6-(trifluoromethyl)pyridin-3-yl)ethyl)benzamide] | 120 nM
CC(CNC(=O)c1ccccc1Cl)(CC1CC1)c1cnc(C(F)(F)F)nc1 (centres unmarked) [2-chloro-N-[3-cyclopropyl-2-methyl-2-[2-(trifluoromethyl)pyr] [2-chloro-N-[3-cyclopropyl-2-methyl-2-[2-(trifluoromethyl)pyrimidin-5-yl]propyl]benzamide] | 21 nM
COc1ccc(C2(CNC(=O)c3cc(C)ccc3Cl)CCCC2)cc1 [2-Chloro-N-[1-(4-methoxy-phenyl)-cyclopentylmethyl]-5-methyl-benzamide] | 190 nM
O=C(NCC(c1ccncc1)c1cnc(C(F)(F)F)nc1)c1ccccc1Cl (centres unmarked) [2-chloro-N-[2-(4-pyridyl)-2-[2-(trifluoromethyl)pyrimidin-5-yl]ethyl]benzamide] | 30 nM
COc1cccc(C(=O)NCC(CC2CC2)c2ccc(C(F)F)nc2)c1Cl (single isomer, unassigned; (+)) [(+)2-chloro-N-[3-cyclopropyl-2-[6-(difluoromethyl)-3-pyridyl]propyl]-3-methoxy-benzamide] | 4.4 nM
O=C(NCC(CC1CC1)c1cnc(C(F)(F)F)nc1)c1cccc(Cl)c1Cl (centres unmarked) [2,3-dichloro-N-[3-cyclopropyl-2-[2-(trifluoromethyl)pyrimidi] [2,3-dichloro-N-[3-cyclopropyl-2-[2-(trifluoromethyl)pyrimidin-5-yl]propyl]benzamide] | 0.88 nM
O=C(NCC(CC1CC1)c1cnc(C(F)(F)F)nc1)c1ccccc1Cl (single isomer, unassigned; (+)) [(+)2-chloro-N-[3-cyclopropyl-2-[2-(trifluoromethyl)pyrimidin] [(+)2-chloro-N-[3-cyclopropyl-2-[2-(trifluoromethyl)pyrimidin-5-yl]propyl]benzamide] | 38 nM
O=C(NCC1(c2ccc(F)nc2)CCC(F)(F)CC1)c1cc(F)ccc1F [N-((4,4-difluoro-1-(6-fluoropyridin-3-yl)cyclohexyl)methyl)-2,5-difluorobenzamide] | 1500 nM
COc1ccc(C2(CNC(=O)c3cccc(Cl)c3Cl)CCC(F)(F)CC2)cn1 [2,3-dichloro-N-((4,4-difluoro-1-(6-methoxypyridin-3-yl)cyclohexyl)methyl)benzamide] | 0.96 nM
